Test results: US7384931B2, “Constrained compounds as CGRP-receptor antagonists” (Bristol-Myers Squibb Company, priority 2004, dated 2008)

The molecules below were run against CGRP receptor (Homo sapiens, UniProt O60894+Q16602) (assay: CGRP radioligand binding assay ([125I]-CGRP displacement, SK-N-MC homogenate)). Settings: displacement of [125I]-CGRP, room temperature 2 h.
Design: endogenous in cells; host or cells: SK-N-MC cells (homogenate/membrane pellet)
Protocol: CGRP Binding Assay. Tissue Culture. SK—N-MC cells were grown at 37° C. in 5% CO2 as a monolayer in medium consisting of MEM with Earle's salts and L-glutamine (Gibco) supplemented with 10% fetal bovine serum (Gibco). Cell Pellets. The cells were rinsed twice with phosphate-buffered saline (155 mM NaCl, 3.3 mM Na2HPO4, 1.1 mM KH2PO4, pH 7.4), and incubated for 5-10 min. at 4° C. in hypotonic lysis buffer consisting of 10 mM Tris (pH 7.4) and 5 mM EDTA. The cells were transferred from plates to polypropylene tubes (16×100 mm) and homogenized using a polytron. Homogenates were centrifuged at 32,000×g for 30 min. The pellets were resuspended in cold hypotonic lysis buffer with 0.1% mammalian protease inhibitor cocktail (Sigma) and assayed for protein concentration. The SK—N-MC homogenate was then aliquoted and stored at −80° C. until needed.
Radioligand Binding Assay. The compounds of invention were solubilized and carried through serial dilutions using 100% DMSO. Aliquots from the compound serial dilutions were further diluted 25 fold into assay buffer (50 mM Tris-Cl pH 7.5, 5 mM MgCl2, 0.005% Triton X-100) and transferred (volume 50 μl) into 96 well assay plates. [^125I]-CGRP (Amersham Biosciences) was diluted to 60 pM in assay buffer and a volume of 50 μl was added to each well. SK—N-MC pellets were thawed, diluted in assay buffer with fresh 0.1% mammalian protease inhibitor cocktail (Sigma), and homogenized again. SK—N-MC homogenate (5 μg/well) was added in a volume of 100 μl. The assay plates were then incubated at room temperature for 2 h. Assays were stopped by addition of excess cold wash buffer (20 mM Tris-Cl pH 7.5, 0.1% BSA) immediately followed by filtration over glass fiber filters (Whatman GF/B) previously soaked in 0.5% PEI. Non-specific binding was defined with 1 μM beta-CGRP. Protein bound radioactivity was determined using a gamma or scintillation counter. The IC50 was defined as the concentration of a compound of invention required to displace 50% of radioligand binding.

Sequence of CGRP receptor (Q16602 23-461): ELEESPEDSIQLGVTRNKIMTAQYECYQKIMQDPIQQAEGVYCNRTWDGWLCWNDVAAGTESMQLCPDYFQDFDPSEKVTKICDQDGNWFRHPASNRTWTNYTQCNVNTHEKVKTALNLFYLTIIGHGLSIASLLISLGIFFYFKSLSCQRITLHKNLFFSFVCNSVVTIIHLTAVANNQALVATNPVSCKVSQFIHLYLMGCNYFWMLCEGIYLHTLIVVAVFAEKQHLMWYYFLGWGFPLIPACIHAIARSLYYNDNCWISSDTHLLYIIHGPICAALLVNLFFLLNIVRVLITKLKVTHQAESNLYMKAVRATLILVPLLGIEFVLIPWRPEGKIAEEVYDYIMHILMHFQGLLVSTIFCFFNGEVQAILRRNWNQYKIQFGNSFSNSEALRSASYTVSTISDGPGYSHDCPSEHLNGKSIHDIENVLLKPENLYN
Sequence of CGRP receptor (O60894 27-148): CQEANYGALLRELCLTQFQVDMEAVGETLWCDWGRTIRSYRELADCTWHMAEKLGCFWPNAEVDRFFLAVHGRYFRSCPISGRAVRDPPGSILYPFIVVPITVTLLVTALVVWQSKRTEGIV

IC50, > 1000 nM:
O=C1Nc2ccccc2C2(CCN(C(=O)N[C@@H]3Cc4ccc5[nH]ncc5c4CN(CCN4CCOCC4)C3=O)CC2)N1 [Example 8, ′H-Spiro[piperidine-4,4′-quinazolin]-2′(3′H)-one-1-carboxylic acid [9-(2-morpholin-4-yl-ethyl)-8-oxo-3,6,7,8,9,10-hexahydro-2,3,9-triaza-(R)-cyclohepta[e]inden-7-yl]-amide]
CN1Cc2cc(OCc3ccccc3)ccc2CC(NC(=O)N2CCC(N3Cc4ccccc4NC3=O)CC2)C1=O (stereo not drawn) [Example 31, 4-(2-Oxo-1,4-dihydro-2H-quinazolin-3-yl)-piperidine-1-carboxylic acid (8-benzyloxy-2-methyl-3-oxo-2,3,4,5-tetrahydro-1H-benzo[c]azepin-4-yl)-amide]

IC50, 0.1 to 10 nM:
CC(C)(C)CN1Cc2c(cc(Cl)c3[nH]ncc23)C[C@@H](CC(=O)Nc2ccc3c(c2)CCC2(C3)NC(=O)NC2=O)C1=O (mixture of isomers) [Example 86, (±)-1-[[(7S)-4-chloro-9-(2,2-dimethylpropyl)-3,6,7,8,9,10-hexahydro-8-oxoazepino[3,4-e]indazol-7-yl]yacetyl]-Amino-3′,4′-dihydro-^1H-spiro[imidazolidine-4,2′naphthalene]-2,5-dione]

IC50, 10 to 100 nM:
CC(C)(C)CN1Cc2c(cc(Cl)c3[nH]ncc23)C[C@@H](CC(=O)Nc2ccc3c(c2)CC2(C3)NC(=O)NC2=O)C1=O (mixture of isomers) [Example 87, (±)-1-[[(7S)-4-chloro-9-(2,2-dimethylpropyl)-3,6,7,8,9,10-hexahydro-8-oxoazepino[3,4-e]indazol-7-yl]acetyl]-Amino-spiro[imidazolidine-4,2′-indane]-2,5-dione]
O=C(N[C@@H]1Cc2ccc3[nH]ncc3c2CN(Cc2ccc(C(F)(F)F)cc2)C1=O)N1CCC(N2Cc3ccccc3NC2=O)CC1 [Example 13, 4-(2-Oxo-1,4-dihydro-2H-quinazolin-3-yl)-piperidine-1-carboxylic acid [8-oxo-9-(4-trifluoromethyl-benzyl)-3,6,7,8,9,10-hexahydro-2,3,9-triaza-(R)-cyclohepta[e]inden-7-yl]-amide]
CC(C)N1Cc2c(ccc3[nH]ncc23)C[C@@H](NC(=O)N2CCC(N3Cc4ccccc4NC3=O)CC2)C1=O [Example 15, 4-(2-Oxo-1,4-dihydro-2H-quinazolin-3-yl)-piperidine-1-carboxylic acid (9-isopropyl-8-oxo-3,6,7,8,9,10-hexahydro-2,3,9-triaza-(R)-cyclohepta[e]inden-7-yl)-amide]
CC(C)(C)OC(=O)N1CCC(N2Cc3c(ccc4[nH]ncc34)C[C@@H](NC(=O)N3CCC(N4Cc5ccccc5NC4=O)CC3)C2=O)CC1 [Example 17]
CC(C)(C)CN1Cc2c(ccc3[nH]ncc23)CC(NC(=O)N2CCC3(CC2)NC(=O)Nc2ccccc23)C1=O (stereo not drawn) [Example 23, N-[9-(2,2-dimethylpropyl)-8-oxo-3,6,7,8,9,10-hexahydroazepino[3,4-e]indazol-7-yl]-2′-oxo-2′,3′dihydro-1H, 1′H-spiro[piperidine-4,4′-quinazoline]-1-carboxamide]

IC50, 100 to 1000 nM:
CN1Cc2c(ccc3[nH]ncc23)C[C@@H](NC(=O)N2CCC(N3Cc4ccccc4NC3=O)CC2)C1=O [Example 2, 4-(2-Oxo-1,4-dihydro-2H-quinazolin-3-yl)-piperidine-1-carboxylic acid (9-methyl-8-oxo-3,6,7,8,9,10-hexahydro-2,3,9-triaza-(R)-cyclohepta[e]inden-7-yl)-amide]
O=C(N[C@@H]1Cc2ccc3[nH]ncc3c2CN(CCN2CCCCC2)C1=O)N1CCC(N2Cc3ccccc3NC2=O)CC1 [Example 3, 4-(2-Oxo-1,4-dihydro-2H-quinazolin-3-yl)-piperidine-1-carboxylic acid [8-oxo-9-(2-piperidin-1-yl-ethyl)-3,6,7,8,9,10-hexahydro-2,3,9-triaza-(R)-cyclohepta[e]inden-7-yl]-amide]
O=C(N[C@@H]1Cc2ccc3[nH]ncc3c2CN(CCN2CCCC2)C1=O)N1CCC(N2Cc3ccccc3NC2=O)CC1 [Example 4, 4-(2-Oxo-1,4-dihydro-2H-quinazolin-3-yl)-piperidine-1-carboxylic acid [8-oxo-9-(2-pyrrolidin-1-yl-ethyl)-3,6,7,8,9,10-hexahydro-2,3,9-triaza-(R)-cyclohepta[e]inden-7-yl]-amide]
CN(C)CCN1Cc2c(ccc3[nH]ncc23)C[C@@H](NC(=O)N2CCC(N3Cc4ccccc4NC3=O)CC2)C1=O [Example 5, 4-(2-Oxo-1,4-dihydro-2H-quinazolin-3-yl)-piperidine-1-carboxylic acid [9-(2-dimethylamino-ethyl)-8-oxo-3,6,7,8,9,10-hexahydro-2,3,9-triaza-(R)-cyclohepta[e]inden-7-yl]-amide]
C[C@@H](c1ccccc1)N1Cc2c(ccc3[nH]ncc23)C[C@@H](NC(=O)N2CCC3(CC2)NC(=O)Nc2ccccc23)C1=O [Example 9, ′^1H-Spiro[piperidine-4,4′-quinazolin]-2′(3′H)-one-1-carboxylic acid [8-oxo-9-(1-(S)-phenyl-ethyl)-3,6,7,8,9,10-hexahydro-2,3,9-triaza-(R)-cyclohepta[e]inden-7-yl]-amide]
O=C1Nc2ccccc2C2(CCN(C(=O)N[C@@H]3Cc4ccc5[nH]ncc5c4CN(Cc4ccc(C(F)(F)F)cc4)C3=O)CC2)N1 [Example 14, ′H-spiro[piperidine-4,4′-quinazolin]-2′(3′H)-one-1-carboxylic acid [8-oxo-9-(4-trifluoromethyl-benzyl)-3,6,7,8,9,10-hexahydro-2,3,9-triaza-(R)-cyclohepta[e]inden-7-yl]-amide]
O=C(N[C@@H]1Cc2ccc3[nH]ncc3c2CN(C2CCNCC2)C1=O)N1CCC(N2Cc3ccccc3NC2=O)CC1 [Example 18, 4-(2-Oxo-1,4-dihydro-2H-quinazolin-3-yl)-piperidine-1-carboxylic acid (8-oxo-9-piperidin-4-yl-3,6,7,8,9,10-hexahydro-2,3,9-triaza-(R)-cyclohepta[e]inden-7-yl)-amide]
CC(C)CN1Cc2c(ccc3[nH]ncc23)CC(NC(=O)N2CCC3(CC2)NC(=O)Nc2ccccc23)C1=O (stereo not drawn) [Example 25, N-[9-(2-methylpropyl)-8-oxo-3,6,7,8,9,10-hexahydroazepino[3,4-e]indazol-7-yl]-2′-oxo-2′,3′-dihydro-1H, 1′H-spiro[piperidine-4,4′-quinazoline]-1-carboxamide]
O=C1Nc2ccccc2C2(CCN(C(=O)NC3Cc4ccc5[nH]ncc5c4CN(Cc4ccncc4)C3=O)CC2)N1 (stereo not drawn) [Example 29, N-[9-pyridin-4-ylmethyl-8-oxo-3,6,7,8,9,10-hexahydroazepino[3,4-e]indazol-7-yl]-2′-oxo-2′,3′-dihydro-1H,1′H-spiro[piperidine-4,4′-quinazoline]-1-carboxamide]
CN1Cc2cc(O)ccc2CC(NC(=O)N2CCC(N3Cc4ccccc4NC3=O)CC2)C1=O (stereo not drawn) [Example 32, 4-(2-Oxo-1,4-dihydro-2H-quinazolin-3-yl)-piperidine-1-carboxylic acid (8-hydroxy-2-methyl-3-oxo-2,3,4,5-tetrahydro-1H-benzo[c]azepin-4-yl)-amide]
